Organism: Rattus norvegicus
Assay: DrugMatrix - Regimen: Daily Repeat
Format: toxicity, organism-based, Sprague-Dawley
Design: regimen Daily Repeat, gender Male, age 6-8 weeks
Details: in vivo, po, route oral GAVAGE, vehicle .5 % CMC; for ABSOLUTE BASOPHIL / ABSOLUTE EOSINOPHIL / ABSOLUTE LYMPHOCYTE / ABSOLUTE MONOCYTE / ABSOLUTE SEGMENTED NEUTROPHIL / BASOPHIL / ERYTHROCYTE COUNT / HEMATOCRIT / HEMOGLOBIN / LYMPHOCYTE / MEAN CORPUSCULAR HEMOGLOBIN / MEAN CORPUSCULAR HEMOGLOBIN CONCENTRATION / MEAN CORPUSCULAR VOLUME / NEUTROPHIL / NUCLEATED RED BLOOD CELLS / PLATELET COUNT: tissue Blood; for ALANINE AMINOTRANSFERASE / ALKALINE PHOSPHATASE / ASPARTATE AMINOTRANSFERASE / BLOOD UREA NITROGEN / CHOLESTEROL / CREATINE PHOSPHOKINASE / CREATININE / GLUCOSE / LACTATE DEHYDROGENASE / LIPASE / PHOSPHORUS / POTASSIUM / SODIUM / TOTAL BILIRUBIN / TOTAL PROTEIN / CARBON DIOXIDE: tissue Plasma
[1] = 0.06 mg/kg, 120 h, dose level Low, time 5 day
[2] = […], 72 h, dose 0.25 mg/Kg, dose level High, time 3 day
[3] = […], 120 h, dose 0.25 mg/Kg, dose level High, time 5 day

CC(=O)CC(c1ccccc1)c1c(O)c2ccccc2oc1=O (stereo not given) [WARFARIN]
ABSOLUTE BASOPHIL [1]: 0 CELLS/uL | ABSOLUTE EOSINOPHIL [1]: 123.33 CELLS/uL | ABSOLUTE LYMPHOCYTE [1]: 12690 CELLS/uL | ABSOLUTE MONOCYTE [1]: 175.33 CELLS/uL | ABSOLUTE SEGMENTED NEUTROPHIL [1]: 1111.33 CELLS/uL | BASOPHIL [1]: 0% | ERYTHROCYTE COUNT [1]: 5.59 x10E6/uL | HEMATOCRIT [1]: 35.53% | HEMOGLOBIN [1]: 13.5 G/DL | LYMPHOCYTE [1]: 90% | MEAN CORPUSCULAR HEMOGLOBIN [1]: 24.2 pg | MEAN CORPUSCULAR HEMOGLOBIN CONCENTRATION [1]: 38 G/DL | MEAN CORPUSCULAR VOLUME [1]: 63.67 fL | NEUTROPHIL [1]: 8% | NUCLEATED RED BLOOD CELLS [1]: 0 /100WBC | PLATELET COUNT [1]: 1320.67 x10E3/uL | ALANINE AMINOTRANSFERASE [1]: 47.33 u/L | ALKALINE PHOSPHATASE [1]: 339.67 u/L | ASPARTATE AMINOTRANSFERASE [1]: 76.33 u/L | BLOOD UREA NITROGEN [1]: 16 mg/dL | CHOLESTEROL [1]: 66.67 mg/dL | CREATINE PHOSPHOKINASE [1]: 293.33 u/L | CREATININE [1]: 0.14 mg/dL | GLUCOSE [1]: 149 mg/dL | LACTATE DEHYDROGENASE [1]: 203 u/L | LIPASE [1]: 9.33 u/L | PHOSPHORUS [1]: 13.2 mg/dL | POTASSIUM [1]: 6.78 MEQ/L | SODIUM [1]: 144.27 MEQ/L | TOTAL BILIRUBIN [1]: 0.2 mg/dL | TOTAL PROTEIN [1]: 6 G/DL | ABSOLUTE BASOPHIL [2]: 0 CELLS/uL | ABSOLUTE EOSINOPHIL [2]: 246.33 CELLS/uL | ABSOLUTE LYMPHOCYTE [2]: 13716 CELLS/uL | ABSOLUTE MONOCYTE [2]: 364 CELLS/uL | ABSOLUTE SEGMENTED NEUTROPHIL [2]: 1007 CELLS/uL | BASOPHIL [2]: 0% | ERYTHROCYTE COUNT [2]: 5.82 x10E6/uL | HEMATOCRIT [2]: 37.73% | HEMOGLOBIN [2]: 14.07 G/DL | LYMPHOCYTE [2]: 89.33% | MEAN CORPUSCULAR HEMOGLOBIN [2]: 24.2 pg | MEAN CORPUSCULAR HEMOGLOBIN CONCENTRATION [2]: 37.33 G/DL | MEAN CORPUSCULAR VOLUME [2]: 64.87 fL | NEUTROPHIL [2]: 6.67% | NUCLEATED RED BLOOD CELLS [2]: 0 /100WBC | PLATELET COUNT [2]: 1397.33 x10E3/uL | ALANINE AMINOTRANSFERASE [2]: 57 u/L | ALKALINE PHOSPHATASE [2]: 354 u/L | ASPARTATE AMINOTRANSFERASE [2]: 82 u/L | BLOOD UREA NITROGEN [2]: 15.33 mg/dL | CARBON DIOXIDE [2]: 25.67 mmol/L | CHOLESTEROL [2]: 86 mg/dL | CREATINE PHOSPHOKINASE [2]: 467.67 u/L | CREATININE [2]: 0.18 mg/dL | GLUCOSE [2]: 156 mg/dL | LACTATE DEHYDROGENASE [2]: 145 u/L | LIPASE [2]: 10.67 u/L | PHOSPHORUS [2]: 13.7 mg/dL | POTASSIUM [2]: 6.91 MEQ/L | SODIUM [2]: 145.27 MEQ/L | TOTAL BILIRUBIN [2]: 0.23 mg/dL | TOTAL PROTEIN [2]: 5.93 G/DL | ABSOLUTE BASOPHIL [3]: 0 CELLS/uL | ABSOLUTE EOSINOPHIL [3]: 86.67 CELLS/uL | ABSOLUTE LYMPHOCYTE [3]: 13093.33 CELLS/uL | ABSOLUTE MONOCYTE [3]: 240.67 CELLS/uL | ABSOLUTE SEGMENTED NEUTROPHIL [3]: 779.33 CELLS/uL | BASOPHIL [3]: 0% | ERYTHROCYTE COUNT [3]: 5.78 x10E6/uL | HEMATOCRIT [3]: 36.23% | HEMOGLOBIN [3]: 13.7 G/DL | LYMPHOCYTE [3]: 92% | MEAN CORPUSCULAR HEMOGLOBIN [3]: 23.7 pg | MEAN CORPUSCULAR HEMOGLOBIN CONCENTRATION [3]: 37.87 G/DL | MEAN CORPUSCULAR VOLUME [3]: 62.63 fL | NEUTROPHIL [3]: 5.67% | NUCLEATED RED BLOOD CELLS [3]: 0 /100WBC | PLATELET COUNT [3]: 1328.33 x10E3/uL | ALANINE AMINOTRANSFERASE [3]: 45.33 u/L | ALKALINE PHOSPHATASE [3]: 285 u/L | ASPARTATE AMINOTRANSFERASE [3]: 79.67 u/L | BLOOD UREA NITROGEN [3]: 17.33 mg/dL | CARBON DIOXIDE [3]: 26.67 mmol/L | CHOLESTEROL [3]: 69.67 mg/dL | CREATINE PHOSPHOKINASE [3]: 518.33 u/L | CREATININE [3]: 0.2 mg/dL | GLUCOSE [3]: 156.33 mg/dL | LACTATE DEHYDROGENASE [3]: 92.67 u/L | LIPASE [3]: 8.67 u/L | PHOSPHORUS [3]: 13.27 mg/dL | POTASSIUM [3]: 6.55 MEQ/L | SODIUM [3]: 147.93 MEQ/L | TOTAL BILIRUBIN [3]: 0.17 mg/dL | TOTAL PROTEIN [3]: 6.33 G/DL

Source: ChEMBL document CHEMBL3885881, “DrugMatrix”
